{"source": "patent US6689764B1", "about": "“Treatment of angiogenesis dependent conditions with dextrin sulphate” (priority 1999, dated 2004)", "key": {"HUVEC cell line": {"system": "HUVEC cell line", "assay": "TCS Biologicals Human Angiogenesis Model (tubule formation)", "assay_type": "cell-based", "experimental": "The effect of sulphated dextrin on vessel formation of the HUVEC cell line was performed by the use of the TCS Biologicals Human Angiogenesis Model. The assay is supplied as a growing culture of the HUVEC cell line together with culture matrix and additional human cells present (the exact nature of the cells is not known) at the earliest stages of tubule formation in a 24-well format. The positive control reagent was a standard stock solution of VEGF and the negative control was Suramin. After removing the well seals, the cultures were examined for cell morphology to confirm their viability.\nGrowth medium was provided with the kit and was used to make up the sulphated dextrin at concentrations ranging from 0-1000 μg/ml. The existing medium was aspirated from the wells and replaced with medium containing the dextrin sulphate concentrations in a 0.5ml volume. This was placed at 37° C., in a 5% CO2 containing atmosphere. This was repeated on days 4, 7 and 9.\nBetween days 7-11 cultures were fixed by the enclosed fixative and stained with the mouse monoclonal anti-PECAM-1 antibody at a 1:4000 dilution (present in blocking buffer). 0.5ml of diluted antibody was added per well and incubated for 60 minutes at 37° C. The secondary antibody (goat anti-mouse lgG alkaline phosphatase conjugate) was diluted 1:500 in blocking buffer and added to the wells after washing for 60 minutes at 37° C. After washing the plate the substrate was prepared; BCIP/NBT tablets were dissolved in distilled water and added to the wells. Following incubation for 5-10 minutes the wells were washed and were imaged using the Leica Qwin image analysis software package."}, "ECV304 cells": {"system": "ECV304 cells", "assay": "In vitro proliferation, MTT uptake", "assay_type": "cell-based, human", "experimental": "(§1) SK-HEP-1 is a human liver adenocarcinoma with endothelial morphology and ECV304 is a human urinary bladder carcinoma with endothelial-like characteristics. Both cell lines were obtained from the ECACC. HUVEC was provided as a growing culture by TCS Biologicals.\n(§2) Cells were grown and prepared in RPMI medium containing 10% FCS and 2mM glutamine. For the in vitro assays, cells were harvested with 0.025% EDTA, washed in the culture medium and plated into 96-well plates at 5×10^3 and 1×10^4 cells/well in a volume of 100 μl. After 24 hours, to allow for cell adherence, the medium was replaced with fresh medium containing dextrin sulphate at concentrations of 0, 1, 5, 10, 50, 100, 500, 1000 μg/ml. After 48 hours, proliferation was assessed by methyl thiazol tetrazolium (MTT) uptake as follows:\n(§3) MTT (Sigma) was added to the wells in a 50 μl volume at a concentration of 1mg/ml. After 4 hours incubation the insoluble formazan crystals were solubilised by the addition of 75 μl DMSO/well and the absorbance measured at 550 nm.\n(§4) Dextrin sulphate was assessed in two separate experiments. All experiments were performed with two different cell-seeding concentrations. […] To compare between cell lines and experiments, the level of inhibition achieved at the highest concentration evaluated (1000 μg/ml) was calculated as was the significance from the untreated control. (See FIG. 11)."}, "SK-HEP-1 cells": {"system": "SK-HEP-1 cells", "assay": "In vitro proliferation, MTT uptake", "assay_type": "cell-based, human", "experimental": "as §1, §2, §3, §4"}, "[1]": {"system": "human placental blood vessels", "assay": "Placental blood vessel in fibrin clot in vitro angiogenesis assay", "assay_type": "cell-based", "settings": "100 μg/ml, up to day 22", "experimental": "Compounds were tested at a final concentration of 100 μg/ml. The degree of new vessel formation was quantified blind twice a week using a visual analog scale in which 0=no growth, 1=minimal new vessel formation, 2=significant new vessel formation, and 3=dense new vessel formation. An angiogenesis score was derived from each count by dividing the total score (i.e. the sum of all the wells) by the maximum possible score and then expressing the result as a percentage. This graph is representative of 3 experiments with a total of 20 wells/plate/experiment for each compound tested.\nBlood vessels (approximately 1-2 mm diameter) were excised from the apical surface of human placentas within 6 h of an elective Caesarean birth. Use of the placentas for these studies were approved by the Ethics Committee of Hammersmith Hospitals Trust, London. The blood vessels were placed in Hank's balanced salt solution and cut into 1-2 mm fragments using fine dissecting forceps and iridectomy scissors. Residual clots were removed and the blood vessels then soaked in Hank's balanced salt solution.\nThe effect of each compound on new blood vessel formulation was determined by culturing the blood vessels within a fibrin clot in 24-well tissue culture plates. Thirty μl of bovine thrombin (50 NIH U/ml in 0.15 M sodium chloride) was added to each well followed by 1 ml/well of 3 mg/ml bovine fibrinogen in Medium 199. The thrombin and fibrinogen were rapidly mixed and a blood vessel fragment placed in the centre of the well. Fibrin gel formation occurred rapidly and left the vessel suspended within the gel. One ml/well of Medium 199 supplemented with 20% foetal calf serum, 250 IU/ml penicillin and 250 U/ml streptomycin was then added to each well. ε-arnino-n-caproic acid was also added (300 μg/ml) for the first 4 days and twice weekly thereafter (50 μg/ml) in order to prevent dissolution of the fibrin clot. The vessels were cultured at 37° C. in a humidified incubator for 25 days with the media being changed twice weekly.\nThe degree of new vessel formation was quantified blind twice a week by three different observers using a visual analogue scale in which 0=no growth, 1=very little new vessel formation, 2=significant new vessel formation and 3=dense new vessel formation. An angiogenesis score was derived from the counts undertaken for each well by dividing the total score by the maximum score possible and then expressing the result as a percentage. On each of 3 separate occasions, each compound was tested in 20 replicate wells. […] Some of the fibrin clots were fixed overnight in 10% formalin, paraffin embedded, sectioned for histology and then stained for the endothelial cell markers Factor VIII and CD31. Results are expressed as the mean±sem. A students t-test was used to determine the level of significance."}, "HUVEC cells": {"system": "HUVEC cells", "settings": "in vitro, Thornton et al 1999; cited from earlier work"}, "[2]": {"system": "AP5LV human colorectal xenograft", "assay": "AP5LV human colorectal xenograft in SCID mice", "assay_type": "in vivo", "experimental": "Dextrin sulphate, 10 mg/kg in 1ml icodextrin was administered every second day to two male SCID micc. Dosing continued for 14 days.\nThe cell line evaluated, AP5LV, is a variant of an established human colorectal cell line, derived originally from a patient's primary tumour. AP5LV cells have been selected for their ability to both colonise the lungs following intravenous injection and to spontaneously metastasise to the lungs following injection of the cells into the peritoneal muscle wall. AP5LV cells were maintained in vitro in RPMI 1640 culture medium (Gibco, Paisley, UK) containing 10% (v/v) heat inactivated foetal bovine serum (Sigma, Poole, UK) at 37° C. in 5% CO2 and humidified conditions. Cells from semi-confluent monolayers were harvested with 0.025% EDTA, washed twice in the culture medium described above, and re-suspended at 5×10^6/50 μl in sterile phosphate buffered saline, pH 7.4(PBS).\nThe mice were anaesthetised using Hypnorm(Roche)/Hyponovel(Janssen) and the cell suspension injected into the peritoneal muscle wall of 20 male SCD mice. Mice were electronically tagged for identification purposes (RS Biotech, Tracker), and randomly allocated to two experimental groups (see below). The treatment regime was initiated on day 1 and continued every other day until termination on day 38. […]"}}}
{"substance": "dextrin sulphate", "values": [{"measurement": "branch point number, % of control", "setting": "HUVEC cell line; 1 μg/ml", "result": 120, "unit": "%"}, {"measurement": "tubule branch points, reduction", "setting": "HUVEC cell line; 1 μg/ml", "result": 31, "unit": "%"}, {"measurement": "branch point number, % of control", "setting": "HUVEC cell line; 5 μg/ml", "result": 115, "unit": "%"}, {"measurement": "branch point number, inhibition", "setting": "HUVEC cell line; 50 μg/ml", "result": 26, "unit": "%"}, {"measurement": "branch point number, inhibition", "setting": "HUVEC cell line; 100 μg/ml", "result": 48, "unit": "%"}, {"measurement": "tubule number, inhibition", "setting": "HUVEC cell line; 100 μg/ml", "result": 48, "unit": "%"}, {"measurement": "branch point number, inhibition", "setting": "HUVEC cell line; 500 μg/ml", "result": 53, "unit": "%"}, {"measurement": "branch point number, inhibition", "setting": "HUVEC cell line; 1000 μg/ml", "result": 68, "unit": "%"}, {"measurement": "tubule branch points, reduction", "setting": "HUVEC cell line; 1000 μg/ml", "result": 93, "unit": "%"}, {"measurement": "tubule number, inhibition", "setting": "HUVEC cell line; 1000 μg/ml", "result": 68, "unit": "%"}, {"measurement": "branch point number", "setting": "HUVEC cell line; all concentrations evaluated (1-1000 μg/ml)", "result": "inhibitory effect"}, {"measurement": "tubule number", "setting": "HUVEC cell line; lower concentrations", "result": "low but significant stimulation"}, {"measurement": "inhibition of in vitro growth", "setting": "ECV304 cells; ECV304, 0-1000 μg/ml, 48 hours", "result": "moderate levels of inhibition"}, {"measurement": "level of inhibition of growth", "setting": "ECV304 cells; ECV304, 1000 μg/ml, both cell concentrations, two experiments", "result": "11-33%"}, {"measurement": "concentrations at which inhibitory effects were seen", "setting": "ECV304 cells; ECV304, MTT assay", "result": "> 100", "unit": "µg/mL"}, {"measurement": "inhibition of in vitro growth", "setting": "SK-HEP-1 cells; SK-HEP-1, 0-1000 μg/ml, 48 hours", "result": "moderate levels of inhibition"}, {"measurement": "level of inhibition of growth", "setting": "SK-HEP-1 cells; SK-HEP-1, 1000 μg/ml, lower cell concentration", "result": "~65", "unit": "%"}, {"measurement": "concentrations at which inhibitory effects were seen", "setting": "SK-HEP-1 cells; SK-HEP-1, MTT assay", "result": "> 100", "unit": "µg/mL"}, {"measurement": "level of inhibition of growth", "setting": "SK-HEP-1 cells; SK-HEP-1, higher cell concentration", "result": "not as great"}, {"measurement": "new vessel formation compared to media alone", "setting": "[1]", "result": "inhibits new vessel formation"}, {"measurement": "proliferation of HUVEC cells", "setting": "HUVEC cells", "result": "not to be directly inhibited"}, {"measurement": "toxicity", "setting": "[2]; 10 mg/kg i.p. every second day, SCID mice", "result": "no toxicity"}, {"measurement": "reduction in final tumour weight", "setting": "[2]; 10 mg/kg in 4% Icodextrin i.p. every second day, termination day 38, SCID mice", "result": 28, "unit": "%"}]}
